The values that follow come from patent US9573954B2, “Pyrazolopyrimidine compounds” (University Health Network, priority 2012, dated 2017).

As a reminder, the IC50 is the concentration that inhibits the measured activity by half. One may read the GI50 as the concentration at which growth is held to half of that of the control.

The target of one assay is T1, human TTK (Homo sapiens, UniProt P33981).
T1 construct: Active TTK was purchased from Invitrogen as an amino terminal GST fusion of full length human TTK; purchased Invitrogen
T1 sequence (P33981 1-857): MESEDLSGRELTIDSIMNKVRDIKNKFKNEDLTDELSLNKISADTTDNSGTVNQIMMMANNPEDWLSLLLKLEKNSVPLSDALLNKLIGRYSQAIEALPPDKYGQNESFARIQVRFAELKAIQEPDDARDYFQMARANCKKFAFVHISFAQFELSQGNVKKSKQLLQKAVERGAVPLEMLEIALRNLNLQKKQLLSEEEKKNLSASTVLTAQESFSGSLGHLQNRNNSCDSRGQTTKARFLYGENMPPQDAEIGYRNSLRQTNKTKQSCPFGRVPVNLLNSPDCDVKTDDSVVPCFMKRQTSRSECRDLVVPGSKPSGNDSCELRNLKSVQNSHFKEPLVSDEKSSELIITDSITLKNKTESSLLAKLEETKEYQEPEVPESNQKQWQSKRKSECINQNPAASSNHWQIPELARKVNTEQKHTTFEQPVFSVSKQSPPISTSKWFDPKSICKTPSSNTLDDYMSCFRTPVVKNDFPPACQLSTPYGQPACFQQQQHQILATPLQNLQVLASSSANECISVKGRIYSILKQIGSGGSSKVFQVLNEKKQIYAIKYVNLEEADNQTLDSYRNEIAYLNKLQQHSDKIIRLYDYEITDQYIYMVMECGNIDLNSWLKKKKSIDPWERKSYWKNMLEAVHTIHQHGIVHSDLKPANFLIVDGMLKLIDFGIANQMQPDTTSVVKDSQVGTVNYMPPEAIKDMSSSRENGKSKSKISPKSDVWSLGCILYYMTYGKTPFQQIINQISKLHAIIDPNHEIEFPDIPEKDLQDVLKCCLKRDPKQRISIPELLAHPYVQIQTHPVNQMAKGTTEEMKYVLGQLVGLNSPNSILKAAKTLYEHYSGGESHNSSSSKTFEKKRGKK
Kind of assay: TTK inhibition assay (indirect ELISA). It counts as biochemical. The method, boiled down:
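Activity detected by indirect ELISA after compounds sat with full-length GST-TTK for 5 min prior to starting the reaction with ATP. IC50 came from a four-parameter logistic curve of % inhibition, calculated against background and uninhibited control wells.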
(In an ELISA, binding on a coated surface is turned into a signal by an enzyme label.)

The subject of assay [1] is colon cancer cells (HCT116). As to the kind of experiment: Cancer cell line growth inhibition, Sulforhodamine B assay, HCT116. The following applies: Homo sapiens, HCT-116, HCT116 colon cancer cell line; read-out: Cancer Cell Line GI50 Range HCT116. It counts as cell-based. The method, boiled down:
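HCT116 cells, 1000–4000 per well, seeded 24 h ahead, then treated 5 days with compound at 10 nM to 50 μM final in DMEM with 10% FBS. Growth measured by sulforhodamine B staining after TCA fixation, A570; GI50 from inhibition relative to DMSO-only cells.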
A general note: The SRB assay estimates cell density from bound dye.

Assay [2] deals with breast cancer cells (MDA-MB-468). As to the kind of experiment: Cancer cell line growth inhibition, Sulforhodamine B assay, MDA-MB-468. It counts as cell-based. The following applies: Homo sapiens, MDA-MB-468, MDA-MB-468 breast cancer cell line; read-out: Cancer Cell Line GI50 Range MDA-MB-468. The method, boiled down:
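MDA-MB-468 cells exposed 5 days to compound at final 10 nM to 50 μM in DMEM with 10% FBS. Growth measured by sulforhodamine B protein staining after TCA fixation, absorbance 570 nm; inhibition relative to DMSO-only cells, GI50 determined for cytotoxic compounds.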

The test system of assay [3] is ovarian cancer cells (OVCAR-3). As to the kind of experiment: Cancer cell line growth inhibition, Sulforhodamine B assay, OVCAR-3. It counts as cell-based. The following applies: Homo sapiens, OVCAR-3, OVCAR-3 ovarian cancer cell line; read-out: Cancer Cell Line GI50 Range OVCAR-3. The method, boiled down:
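OVCAR-3 cells were seeded 24 h before compound addition, then exposed for 5 days to final concentrations of 10 nM to 50 μM in DMEM with 10% FBS. Growth was measured by TCA fixation and sulforhodamine B staining with absorbance at 570 nm. Inhibition was relative to DMSO-only cells, and GI50 came from curve fitting.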

In assay [4] the test system is Ovarian 2393A tumor initiating cells. As to the kind of experiment: Tumor-initiating cell growth inhibition, Alamar Blue assay, ovarian TICs. It counts as cell-based. The following applies: 144 h; Ovarian 2393A TICs, 6 days; read-out: Tumor Initiating Cell GI50 Range Ovarian 2393A. From the text:
(§1) Non-tissue or tissue cultured treated T-75 flask and 96-well plates were purchased from VWR. Vitamin B-27 supplement, MEM NEAA (minimum essential medium non essential amino acids), sodium pyruvate, L-glutamine, N2 supplement, penicillin-streptomycin and fungizone/amphotericin B were obtained from Invitrogen. Lipid mixture, heparin and EGF were purchased from Sigma; bFGF from BD Biosciences. Tumor Initiating Cells (TICs) from colon were routinely maintained using non-tissue cultured treated T-75 flasks in DMEM:F12 medium containing 0.2XB-27 supplement, 4 ug/ml heparin, 1×MEM NEAA, 1×sodium pyruvate, 1 mM glutamine, 10 pg/ul bFGF, 20 pg/ul EGF, 1× N2 supplement, lipid mixture, penicillin-streptomycin and fungizone/amphotericin B. Ovarian TICs were routinely maintained using tissue cultured treated T-75 flasks in DMEM:F12 medium containing IXB-27 supplement, 4 ug/ml heparin, 20 pg/ul bFGF, 20 pg/ul EGF and penicillin-streptomycin.
(§2) Compounds described herein were dissolved in DMSO and further diluted in cell culture medium for GI50 determination. Colon TICs were trypsinized and seeded into non-tissue cultured treated 96-well plates with 4,000 cells/well. After 24 h, compound was added into the cell culture at different concentrations, and the final concentration of DMSO was adjusted to 0.1%. Cells were then cultured at 37° C. for 9 days. Ovarian TICs were trypsinized and seeded into tissue cultured treated 96-well plates with 1,000 cells/well. After 24 h, compound was added into the cell culture at different concentrations, and the final concentration of DMSO was adjusted to 0.1%. Cells were then cultured at 37° C. for 6 days. Cell viability was assessed by Alamar Blue assay: 10 ul of Alamar Blue was added into each well. After 4 hours incubation at 37° C., fluorescence was recorded at excitation 544 and emission 590. GI50 (Growth inhibition) was calculated using GraphPad Prism 4.0 software.
(§3) In Table 1 below, GI50 value ranges for compound examples against TICs (Colon 12 and Ovarian 2393A) are given.

The subject of assay [5] is Colon 12 tumor initiating cells. Kind of assay: Tumor-initiating cell growth inhibition, Alamar Blue assay, colon TICs. The format is cell-based. The following applies: 216 h; Colon 12 TICs, 9 days; read-out: Tumor Initiating Cell GI50 Range Colon 12.
Source text: as §1, §2, §3
A general note: Alamar Blue is a resazurin reagent that responds to reducing activity.

Setting [6] is: 100 μM ATP, read-out: TTK IC50 Range.

Where two headings read alike, the source gives them in different places. Where only a bound is given, the exact number is not on record here.

Take `Cc1cc(-c2cnn3c(NCCN4CCOCC4)cc(Oc4cccc(F)c4F)nc23)ccc1C(=O)NC1CC1` [Example C32, N-cyclopropyl-4-(5-(2,3-difluorophenoxy)-7-((2-morpholinoethyl)amino)pyrazolo[1,5-a]pyrimidin-3-yl)-2-methylbenzamide]: the concentration for half-maximal inhibition (IC50) on human TTK (setting [6]) is less than 100 nM. Also, the GI50 in assay [1], in assay [2], in assay [3], in assay [4] and in assay [5] was no more than 100 nM each time.
Consider `Cc1cc(-c2cnn3c(NC[C@H]4C[C@H](O)C4)cc(Oc4cccnc4)nc23)ccc1C(=O)NC1CC1` [Example C144], for which, at human TTK (setting [6]), the IC50 was less than 100 nM. In addition, the GI50 in assay [1], in assay [2], in assay [3], in assay [4] and in assay [5] was no more than 100 nM throughout.
Regarding `Cc1cc(-c2cnn3c(NCC4CC4)cc(N[C@H]4CCCC[C@H]4O)nc23)ccc1C(=O)NC1CC1` [Example C42, N-cyclopropyl-4-(7-((cyclopropylmethyl)amino)-5-(((1S,2R)-2-hydroxycyclohexyl)amino)pyrazolo[1,5-a]pyrimidin-3-yl)-2-methylbenzamide], on human TTK (setting [6]), the IC50 was less than 100 nM. Besides, the GI50 in assay [1], in assay [2], in assay [3], in assay [4] and in assay [5] was no more than 100 nM throughout.
On to `Cc1cc(-c2cnn3c(NCC4CCOCC4)cc(NC4(CO)CCCC4)nc23)ccc1C(=O)NC1CC1` [Example C45], for which the IC50 on human TTK (setting [6]) was less than 100 nM. In addition, the GI50 in assay [1] is no more than 100 nM; in assay [2], no more than 100 nM; in assay [3], no more than 100 nM; in assay [4], 100 to 500 nM; in assay [5] it was no more than 100 nM.
Turning to `Cc1cc(-c2cnn3c(NCC4CCOCC4)cc(N[C@@H](C(C)C)C(C)(C)O)nc23)ccc1C(=O)NC1CC1` [Example C40, (S)-N-cyclopropyl-4-(5-((2-hydroxy-2,4-dimethylpentan-3-yl)amino)-7-(((tetrahydro-2H-pyran-4-yl)methyl)amino)pyrazolo[1,5-a]pyrimidin-3-yl)-2-methylbenzamide], at human TTK (setting [6]), the IC50 was less than 100 nM. In addition, the concentration for 50% growth inhibition (GI50) in assay [1] was no more than 100 nM; in assay [2], no more than 100 nM; in assay [3], 100 to 500 nM; in assay [4], 100 to 500 nM; in assay [5], no more than 100 nM.
Turning to `Cc1cc(-c2cnn3c(NC[C@H]4C[C@H](O)C4)cc(NC4CCOCC4)nc23)ccc1C(=O)NC1CC1` [Example C145], the IC50 at human TTK (setting [6]) was less than 100 nM. Further, the GI50 in assay [1], in assay [2], in assay [3], in assay [4] and in assay [5] was 100 to 500 nM each time.
With `Cc1cc(-c2cnn3c(NCC4CCOCC4)cc(N[C@H]4CCCC[C@H]4O)nc23)ccc1C(=O)NC1CC1` [Example C39, N-cyclopropyl-4-(5-(((1S,2R)-2-hydroxycyclohexyl)amino)-7-(((tetrahydro-2H-pyran-4-yl)methyl)amino)pyrazolo[1,5-a]pyrimidin-3-yl)-2-methylbenzamide], on human TTK (setting [6]), the IC50 was less than 100 nM. In addition, the GI50 in assay [1], in assay [2], in assay [3], in assay [4] and in assay [5] was no more than 100 nM each time.
In the case of `Cc1cc(-c2cnn3c(NCC4CCOCC4)cc(N[C@H]4CC[C@H](O)CC4)nc23)ccc1C(=O)NC1CC1` [Example C48], the IC50 on human TTK (setting [6]) was less than 100 nM. The GI50 in assay [1], in assay [2], in assay [3], in assay [4] and in assay [5] was 100 to 500 nM each time.
As for `Cc1cc(-c2cnn3c(NCC4CCOCC4)cc(N[C@H](CO)CC(C)C)nc23)ccc1C(=O)NC1CC1` [Example C130], the IC50 at human TTK (setting [6]) is less than 100 nM. Further, the GI50 in assay [1] is no more than 100 nM; in assay [2], 100 to 500 nM; in assay [3] it was 100 to 500 nM; in assay [4], no more than 100 nM; in assay [5] it was no more than 100 nM.
With `Cc1cc(-c2cnn3c(NCC4COC4)cc(N[C@H]4CCCC[C@H]4O)nc23)ccc1C(=O)NC1CC1` [Example C37, N-cyclopropyl-4-(5-(((1S,2R)-2-hydroxycyclohexyl)amino)-7-((oxetan-3-ylmethyl)amino)pyrazolo[1,5-a]pyrimidin-3-yl)-2-methylbenzamide], the IC50 at human TTK (setting [6]) is less than 100 nM. Moreover, the GI50 in assay [1], in assay [2], in assay [3], in assay [4] and in assay [5] was no more than 100 nM throughout.
As to `Cc1cc(-c2cnn3c(NCC4CCOCC4)cc(N[C@H](CO)C(C)C)nc23)ccc1C(=O)NC1CC1` [Example C38, (S)-N-cyclopropyl-4-(5-((1-hydroxy-3-methylbutan-2-yl)amino)-7-(((tetrahydro-2H-pyran-4-yl)methyl)amino)pyrazolo[1,5-a]pyrimidin-3-yl)-2-methylbenzamide], the IC50 at human TTK (setting [6]) is less than 100 nM. Moreover, the GI50 in assay [1], in assay [2], in assay [3], in assay [4] and in assay [5] was no more than 100 nM throughout.
Take `Cc1cc(-c2cnn3c(NCC4COC4)cc(Oc4cccnc4)nc23)ccc1C(=O)NC1CC1` [Example C100]: the IC50 at human TTK (setting [6]) is less than 100 nM. In addition, the GI50 is 100 to 500 nM in assay [1]; 100 to 500 nM in assay [2]; 100 to 500 nM in assay [3]; no more than 100 nM in assay [4]; no more than 100 nM in assay [5].
Turning to `Cc1cc(-c2cnn3c(NC[C@H]4CC[C@@H](O)CC4)nc(Oc4cccc(F)c4)nc23)ccc1C(=O)NC1CC1` [Example C24], the IC50 on human TTK (16 μM ATP (Sigma cat# A7699), read-out: TTK IC50 Range (denoted with an asterisk)) was less than 100 nM. The GI50 in assay [1], in assay [2], in assay [3], in assay [4] and in assay [5] was no more than 100 nM in each case.
